Article PMC3945637 (Frontiers in Pharmacology, 2014)
Peptide text beside a SMILES is read from it.

How the values were obtained:
[1] = molecular target: rabbit B2R-green fluorescent protein (rabbit) (UniProt Q28642); assay: radioligand binding; competition of 3 nM [^3H]BK binding to adherent intact HEK 293 cells stably expressing rabbit B2R-GFP by unlabeled peptides; 0 °C; peptidase inhibitors that included captopril; one-site competition fit
[2] = molecular target: human B1R (B1R-FLAG vector) (human) (UniProt P46663); assay: radioligand binding; competition of 1 nM [^3H]Lys-des-Arg^9-BK binding to HEK 293a cells transiently expressing human B1R (B1R-FLAG vector); one-site competition fit
[3] = molecular target: T1, human recombinant ACE (Homo sapiens, UniProt P12821); assay: radioligand binding; competition of 2 nM [^3H]enalaprilat binding to HEK 293a cells transiently expressing human recombinant ACE by BK and analogs; one-site competition fit
T1 sequence (P12821 30-1306): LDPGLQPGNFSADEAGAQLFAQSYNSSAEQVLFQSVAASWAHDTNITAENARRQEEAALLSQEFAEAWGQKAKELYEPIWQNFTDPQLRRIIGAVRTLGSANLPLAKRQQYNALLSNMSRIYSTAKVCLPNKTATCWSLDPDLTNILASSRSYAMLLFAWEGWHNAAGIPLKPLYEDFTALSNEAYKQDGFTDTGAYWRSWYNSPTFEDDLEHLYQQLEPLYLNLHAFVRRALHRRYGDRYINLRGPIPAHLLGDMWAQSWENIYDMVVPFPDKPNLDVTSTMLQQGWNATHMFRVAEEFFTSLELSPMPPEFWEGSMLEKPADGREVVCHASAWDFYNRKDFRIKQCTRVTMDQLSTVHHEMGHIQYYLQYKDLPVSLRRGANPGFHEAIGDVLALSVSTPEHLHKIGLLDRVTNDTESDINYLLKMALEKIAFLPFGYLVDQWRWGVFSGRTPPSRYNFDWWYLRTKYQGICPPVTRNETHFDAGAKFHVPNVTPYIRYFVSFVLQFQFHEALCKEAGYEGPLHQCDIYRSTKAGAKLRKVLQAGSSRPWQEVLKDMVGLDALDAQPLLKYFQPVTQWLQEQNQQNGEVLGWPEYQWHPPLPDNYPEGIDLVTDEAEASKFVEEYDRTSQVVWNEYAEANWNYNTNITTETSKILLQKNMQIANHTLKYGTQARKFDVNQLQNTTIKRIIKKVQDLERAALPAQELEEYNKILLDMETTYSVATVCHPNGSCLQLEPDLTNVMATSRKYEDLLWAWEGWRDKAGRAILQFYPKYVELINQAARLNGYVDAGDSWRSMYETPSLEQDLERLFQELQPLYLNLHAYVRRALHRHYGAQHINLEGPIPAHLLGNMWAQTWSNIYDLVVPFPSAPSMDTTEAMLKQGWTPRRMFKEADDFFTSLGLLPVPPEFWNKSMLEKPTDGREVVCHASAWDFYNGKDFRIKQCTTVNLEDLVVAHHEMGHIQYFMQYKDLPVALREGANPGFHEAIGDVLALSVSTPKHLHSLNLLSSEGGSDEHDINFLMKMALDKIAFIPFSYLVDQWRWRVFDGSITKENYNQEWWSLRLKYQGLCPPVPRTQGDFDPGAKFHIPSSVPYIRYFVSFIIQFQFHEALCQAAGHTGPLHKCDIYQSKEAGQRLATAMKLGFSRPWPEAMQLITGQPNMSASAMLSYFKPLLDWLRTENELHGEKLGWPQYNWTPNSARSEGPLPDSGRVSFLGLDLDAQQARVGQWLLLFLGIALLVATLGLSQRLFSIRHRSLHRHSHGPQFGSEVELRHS

[4] = molecular target: endogenous B2 receptor of the human umbilical vein (human (endogenous in umbilical vein)) (UniProt P30411)
[5] = molecular target: T2, BK B2R (human umbilical vein rings) (Homo sapiens, UniProt P30411); assay: Human isolated umbilical vein contractility assay; format: cell-based; conditions: for +Peptidase inhibitor log(EC50) ± SE / Control (DMSO vehicle) log(EC50) ± SE: log of contractile EC50; for Control (DMSO vehicle) log(EC50) ± SE: no peptidase inhibitor, paired tissues
T2 construct: from tissue; host or cells: human umbilical vein rings
T2 sequence (P30411 1-391): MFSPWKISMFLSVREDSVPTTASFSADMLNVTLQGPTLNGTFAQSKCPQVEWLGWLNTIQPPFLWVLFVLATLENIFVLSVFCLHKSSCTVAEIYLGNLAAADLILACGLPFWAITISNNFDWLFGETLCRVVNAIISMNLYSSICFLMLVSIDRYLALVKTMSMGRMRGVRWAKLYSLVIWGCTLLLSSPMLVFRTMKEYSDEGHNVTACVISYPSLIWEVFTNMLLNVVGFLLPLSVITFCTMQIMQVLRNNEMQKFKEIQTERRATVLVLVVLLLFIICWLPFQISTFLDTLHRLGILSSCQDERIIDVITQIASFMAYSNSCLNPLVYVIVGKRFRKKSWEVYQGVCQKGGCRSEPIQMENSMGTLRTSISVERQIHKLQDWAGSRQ
Source text: The institutional research ethics board (CHU de Québec) approved the anonymous use of human umbilical cord segments obtained after elective cesarean section deliveries. Informed consent was obtained from mothers. […] Tissues were used only once and discarded; controls curves were obtained from other vascular rings from the same vein.
(§1) Results are presented as mean ± SEM. Radioligand binding data were fitted by non-linear regression to a one-site competition equation using a least-square method (Prism 4.0, GraphPad Software Inc., San Diego, CA, USA) and IC50 values calculated from this procedure. The same computer program was used to draw concentration-effect curves (least square fitting of sigmoidal dose-response equation with variable slope) and to derive contractile EC50 values. The qualitative effect of treatments on the distribution of the B2R-GFP fluorescent protein (either located at the plasma membrane or submitted to internalization) was evaluated for each HEK 293 cell in large microphotographic records and proportion of affected cells were compared using the χ^2 statistics to determine drug effect on the subcellular receptor distribution.

[6] = molecular target: T1, human recombinant ACE; assay: [3H]enalaprilat binding competition to recombinant ACE transiently expressed in HEK 293a cells; design: expressed in transfected cells; host or cells: HEK 293a cells, transient expression (peACE vector, gift from Prof. P. Corvol)
Method: (§2) Affinity for the B2R was evaluated using a radioligand binding competition assay performed at 0 °C in the presence of peptidase inhibitors that included captopril ([Houle et al., 2000]). […] Other HEK 293a cells that transiently expressed human recombinant ACE were used to perform a [^3H]enalaprilat binding assay as described ([Koumbadinga et al., 2010]; the peACE vector was a gift from Prof. P. Corvol, Paris, France).
as §1

[7] = molecular target: T3, rabbit B2R-green fluorescent protein (B2R-GFP) (Oryctolagus cuniculus, UniProt Q28642); assay: [3H]BK binding competition to B2R-GFP stably expressed in intact HEK 293 cells; conditions: for IC50 for B2R-GFP relative to unlabeled BK (fold greater IC50 / lower affinity): [3H]BK binding competition, vs BK; for [3H]BK binding to B2R-GFP log(IC50) ± SE: log of IC50, 3 nM [3H]BK, 0 °C, with peptidase inhibitors incl. captopril, HEK 293 cells
T3 construct: expressed in transfected cells
T3 sequence (Q28642 1-367): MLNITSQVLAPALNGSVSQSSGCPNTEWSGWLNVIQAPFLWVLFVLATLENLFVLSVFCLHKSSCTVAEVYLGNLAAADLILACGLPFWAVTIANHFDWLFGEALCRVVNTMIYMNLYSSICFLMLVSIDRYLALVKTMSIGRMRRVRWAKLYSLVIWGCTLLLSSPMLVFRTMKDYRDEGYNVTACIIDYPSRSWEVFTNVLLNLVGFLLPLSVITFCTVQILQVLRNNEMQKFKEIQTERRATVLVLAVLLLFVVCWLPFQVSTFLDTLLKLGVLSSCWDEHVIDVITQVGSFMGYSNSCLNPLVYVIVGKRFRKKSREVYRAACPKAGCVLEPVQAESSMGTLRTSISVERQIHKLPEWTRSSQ
Method: as §2, §1

[8] = molecular target: T4, human B1R (B1R-FLAG) (Homo sapiens, UniProt P46663); assay: [3H]Lys-des-Arg9-BK binding competition to B1R-FLAG transiently expressed in HEK 293a cells
T4 construct: FLAG; expressed in transfected cells
T4 sequence (P46663 1-353): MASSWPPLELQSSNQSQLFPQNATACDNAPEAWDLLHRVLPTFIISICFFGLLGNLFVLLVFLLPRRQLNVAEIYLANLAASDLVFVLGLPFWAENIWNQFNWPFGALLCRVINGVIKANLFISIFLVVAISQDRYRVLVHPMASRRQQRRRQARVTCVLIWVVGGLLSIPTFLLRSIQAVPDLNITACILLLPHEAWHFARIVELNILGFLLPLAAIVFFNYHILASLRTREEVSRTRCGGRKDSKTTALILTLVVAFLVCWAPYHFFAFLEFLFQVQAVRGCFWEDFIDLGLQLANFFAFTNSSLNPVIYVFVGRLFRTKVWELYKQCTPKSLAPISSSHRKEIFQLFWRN

Compound: BK-Arg (peptide)
- log(IC50) [1]: -6.34 log M
- log(IC50) [2]: -5.12 log M

Compound: BK-His-Leu (peptide)
- log(IC50) [3]: -5.28 log M
- log(IC50) [1]: -5.24 log M
- log(IC50) [2]: > -5 log M
- log(EC50) of contraction of the human isolated umbilical vein, with ACE blocked by enalaprilat 1 μM, Figure 3C [4]: -5.34 log M

Compound: Arg-Pro-BK (peptide)
- log(IC50) [1]: -7.61 log M
- log(EC50) of contraction of the human isolated umbilical vein, control (DMSO vehicle), Figure 5B [4]: -7.39 log M
- log(EC50) of contraction of the human isolated umbilical vein, with NVP-DPP728 1 μM, Figure 5B [4]: -7.29 log M
- log(EC50) of contraction of the human isolated umbilical vein, with amastatin 3 μM, Figure 5B [4]: -7.35 log M

Compound: N=C(N)NCCC[C@H](NC(=O)[C@H](Cc1ccccc1)NC(=O)[C@@H]1CCCN1C(=O)[C@H](CO)NC(=O)[C@H](Cc1ccccc1)NC(=O)CNC(=O)[C@@H]1CCCN1C(=O)[C@@H]1CCCN1C(=O)[C@@H](N)CCCNC(=N)N)C(=O)N[C@@H](CO)C(=O)N[C@@H](Cc1ccc(O)cc1)C(=O)O [BK-Ser-Tyr] (H-RPPGFSPFRSY-OH; N-terminus and C-terminus assumed)
- fold less potent than BK as contractile agent ([5]; control conditions, vs BK): 6.9 fold
- decrease of apparent contractile potency by ACE blockade ([5]; enalaprilat 1 μM vs paired control tissues): 3.9 fold
- +Peptidase inhibitor log(EC50) ± SE ([5]; enalaprilat 1 μM, 30 min before agonist): -6.32 ± 0.06
- Control (DMSO vehicle) log(EC50) ± SE [5]: -6.90 ± 0.09
- fold lesser affinity vs. BK for ACE ([6]; [3H]enalaprilat binding competition, vs BK): 3.94 fold
- [3H]enalaprilat binding to ACE log(IC50) ± SE ([6]; log of IC50, 2 nM [3H]enalaprilat, HEK 293a cells): -5.21 ± 0.15
- IC50 for B2R-GFP relative to unlabeled BK (fold greater IC50 / lower affinity) [7]: 102 fold
- [3H]BK binding to B2R-GFP log(IC50) ± SE [7]: -5.79 ± 0.13
- [3H]Lys-des-Arg9-BK binding to B1R-FLAG log(IC50) ± SE ([8]; log of IC50, 1 nM [3H]Lys-des-Arg9-BK, HEK 293a cells): >-5

Compound: NC(N)=NCCC[C@H](NC(=O)[C@H](Cc1ccccc1)NC(=O)[C@@H]1CCCN1C(=O)[C@H](CO)NC(=O)[C@H](Cc1ccccc1)NC(=O)CNC(=O)[C@@H]1CCCN1C(=O)[C@@H]1CCCN1C(=O)[C@@H](N)CCCN=C(N)N)C(=O)O [BK, Bradykinin, reference compound] (H-RPPGFSPFR-OH)
- IC50 [6]: 1550 nM
- IC50 [7]: 15.8 nM
- IC50 [8]: > 10000 nM

Compound: N=C(N)NCCC[C@H](NC(=O)[C@H](Cc1ccccc1)NC(=O)[C@@H]1CCCN1C(=O)[C@H](CO)NC(=O)[C@H](Cc1ccccc1)NC(=O)CNC(=O)[C@@H]1CCCN1C(=O)[C@@H]1CCCN1C(=O)[C@H](CCCNC(=N)N)NC(=O)[C@@H]1CCCN1C(=O)[C@@H](N)CCCNC(=N)N)C(=O)O [Arg-Pro-BK] (H-RPRPPGFSPFR-OH; N-terminus and C-terminus assumed)
- effect of DPP-IV inhibitor NVP-DPP728 on apparent contractile potency (in words) ([5]; NVP-DPP728 1 μM): did not show a loss of apparent potency
- effect of aminopeptidase inhibitor amastatin on contractile effect (in words) ([5]; amastatin 3 μM): failed to modify
- +Peptidase inhibitor log(EC50) ± SE ([5]; NVP-DPP728 1 μM): -7.29 ± 0.03
- +Peptidase inhibitor log(EC50) ± SE ([5]; amastatin 3 μM): -7.35 ± 0.07
- Control (DMSO vehicle) log(EC50) ± SE [5]: -7.39 ± 0.06
- IC50 for B2R-GFP relative to unlabeled BK (fold greater IC50 / lower affinity) [7]: 1.6 fold
- [3H]BK binding to B2R-GFP log(IC50) ± SE [7]: -7.61 ± 0.09
